Each structure is given as a SMILES string. Entries after “also recorded” stand apart in the source; their conditions may differ.

What all share (assay type): cell-based, Chinese hamster
One test has as its system CHO-K1 cell line. Kind of test: Fed-batch spiking test, IgG glycan profile by HPLC with Glycan Column. Conditions: for impact on G1F formation: versus control group. The protocol:
Industrial standard Fed-batch process: CHO-K1 cell line is cultured in corresponding media. Feed for 14 days, with 6 mM glutamine supplement on the inoculation day. The working volume is 30 mL in 125 mL shake flasks, and the inoculation cell density is 0.5 million cells/mL. The parameters for the shaking incubator are: 125 RPM, and 5% CO2. The feeding strategy is 10% corresponding feed everyday starting from day 3 to day 13.
In the standard industrial fed-batch process, cells were exposed to the inhibitors for a long period of time. This experiment mimics the therapeutic antibody production process, and spikes the inhibitors at their end-of-culture cellular concentration. ICA was confirmed as a known inhibitor and was used as a positive inhibitor control. Mixture condition excluded ICA and included AA, HICA, CMP, MSA, TRI, NAP. The process lasted for 14 days, and starting from day 6, the cell density under the inhibitor conditions were lower than the negative control batch.
IgG titer was measured by HPLC with a Protein A column. Product quality was quantified by the IgG glycan profile, which was measured by HPLC with a Glycan Column.

In another test the test system is CHO K-1. In words: Batch culture spiking of metabolites at end-of-culture concentration. Particulars: spiked at end-of-culture concentration, 6 days batch culture. The protocol: CHO K-1 industrial standard batch process: NIH CHO-K1 cell line is cultured for 6 days, with 6 mM glutamine supplement on the inoculation day. The working volume is 30 mL in 125 mL shake flasks, and the inoculation cell density is 0.5 million cells/mL. The parameters for the shaking incubator are: 125 RPM, and 5% CO2.
Cells were exposed to the identified inhibitory metabolites of Table 1 at their end-of-culture concentration for 6 days in batch culture. […] All of the inhibitory metabolites decreased the antibody productivity (FIG. 4).

The next test concerns CHO-S cells. Kind of test: Inhibitory metabolite accumulation in transiently transfected CHO-S subclones (LC-MS). Particulars: 6 days. Also on record: dose or concentration left out as unconfirmed. The procedure: FIG. 17A-G are graphs showing inhibitory metabolite accumulation in different subclones. Accumulation concentration of metabolites shown here: FIG. 17A, CMP; FIG. 17B, GMP; FIG. 17C, HICA, FIG. 17D, MSA, FIG. 17E, NAP, FIG. 17F, TAA; and FIG. 17G, TRI. The study was divided into […] unique subclone groups. […] A negative control was included where no plasmid transfection occurred. Each subclone was cultured for 6 days at which time cells and cell culture supernatant were collected. Cells for both the control and transfection subclones were derived from the same culture to eliminate variation in growth cycle and other culture conditions. Quantification of inhibitory metabolites accumulation was performed through LC-MS. Bars, mean±s.e.m.; n=3, *p<0.05, **p<0.01, ***p<0.001. Statistics by two-tailed t-test. LC-MS/MS method for metabolites profiling: Standards of metabolites were purchased from Sigma Aldrich (St. Louis, MO) and used for identification of wasted inhibitor metabolites. Operating parameters and samples preparation protocol were followed to a previously published protocol. Quantification of expression level of transfected gene of interest through qPCR. The expression level of seven different genes transfected into CHO-S cells were evaluated using relative quantification (RQ) compared to the calibrator. The study was divided into eight unique subclone groups. […] A negative control was included in the study where no genetic engineering work involving plasmid transfection occurred. Each subclone was cultured for 6 days. Cells for both the control and transfection subclones were derived from the same culture to eliminate variation in growth cycle and other culture conditions. […] Gene functionality study through metabolic pathway analysis. As mentioned previously, HICA is generated as the downstream metabolite from the metabolism of leucine in mammalian cells, of which cellular biochemical activities are regulated by ADH5 and BCAT1 enzymes. […] A negative control was included in the study where no genetic engineering work involving plasmid transfection occurred.

Consider `O=C(O)C=C(CC(=O)O)C(=O)O` [AA, aconitic acid], for which the “impact on G2F formation” value in the test on CHO-K1 cell line (Day 14, versus control group) is “totally inhibits the G2F formation; also recorded: G2F was not formed”. For the same molecule, the “impact on G1F formation” value in the test with CHO-K1 cell line is given as “higher impact on G1F formation”. Also, in the test with CHO K-1, the “cell density versus control group” value is given as “lower cell density than the control group”.
Consider `Nc1ccn([C@@H]2O[C@H](COP(=O)(O)O)[C@@H](O)[C@H]2O)c(=O)n1` [CMP, cytidine-5′-monophosphate], for which, in the test with CHO-K1 cell line, the “impact on G1F formation” value is “higher impact on G1F formation”. The “cell density versus control group” value with CHO K-1 is listed as “lower cell density than the control group”. Also, the “decrease in accumulation versus control” value in the test on CHO-S cells (Got1 transfected clone) stood at 35.68%; in the test with CHO-S cells (Hoga1 transfected clone) it was 33.59%; in the test on CHO-S cells (Slc35a1 transfected clone), 50.63%.
Consider `CC(CC(=O)O)C(=O)O` (centres unmarked) [MSA, methylsuccinic acid], for which, in the test on CHO-K1 cell line, the “impact on G1F formation” value was “higher impact on G1F formation”.
`CC(C)CC(O)C(=O)O` (stereo not drawn) [HICA, α-hydroxyisocaproic acid]: in the test on CHO-K1 cell line, the “impact on G1F formation” value was “higher impact on G1F formation”. The “decrease in accumulation versus control” value came to 86.13% in the test with CHO-S cells (Adh5 transfected clone), 72.31% in the test on CHO-S cells (Bcat1 transfected clone), 27.05% with CHO-S cells (Hadhb transfected clone) and 73.51% with CHO-S cells (Slc35a1 transfected clone).
Take `C[n+]1cccc(C(=O)[O-])c1` [TRI, trigonelline]: the “decrease in accumulation versus control” value with CHO-S cells (Bcat1 transfected clone) came to 42.96%; in the test on CHO-S cells (Cat transfected clone), 27.8%; in the test on CHO-S cells (Got1 transfected clone) it was 40.43%; in the test with CHO-S cells (Hadhb transfected clone), 35.38%.
In the case of `O=C(O)c1c[nH]c2ccccc12` [ICA, indole-3-carboxylic acid, reference compound], the “impact on G1F formation” value with CHO-K1 cell line is on record as “higher impact on G1F formation”. In the test with CHO K-1, the “cell density versus control group” value is “lower cell density than the control group”.

The record behind these values is patent publication US12703851B2, “Cell culture methods” (The University of Massachusetts, priority 2019, dated 2026).
